In patent publication EP0838474B1, “PEPTIDE THAT INHIBITS BLOOD TRIGLYCERIDE LEVEL RISE AND BLOOD TRIGLYCERIDE LEVEL RISE INHIBITOR CONTAINING SAID PEPTIDE AS ACTIVE INGREDIENT” (MG PHARMA INC., priority 1995, dated 1997):
Residues, ends and D or L forms follow the SMILES beside them. No end group written: not given here.

Tested on: TG level in blood
Assay: Serum TG elevation inhibiting action at the time of in vivo lipid loading (olive oil)
Set-up: species or system albino mice
Settings: for Ratio of Increase in Blood TG Levels (%): blood collected after 3 hours; for ID^50: Dose (mg/mouse) exhibiting 50% inhibition: oral, with 250 mg olive oil, blood TG after 3 hours; for Specific Activity: relative to the proteolysate (= 1)
Experimental: Serum TG elevation inhibiting action at the time of in vivo lipid loading was examined on the three peptides of the invention inhibiting elevations of TG levels in blood (i.e., the peptide having the amino acid sequence of SEQ ID NO: 1 and the peptides Val-Thr-Leu and Val-Tyr-Pro synthesized by the method described in Example 4). Healthy albino mice (5-10 weeks old; body weight: about 20-30 g) were used in this experiment. To each mouse, 250 mg of olive oil and an aqueous solution of the above peptide were administered orally. Three hours thereafter, blood was collected under anesthesia with Nembutal. After separation of the blood, the TG level in blood was determined.

CC(C)C[C@H](NC(=O)[C@@H](NC(=O)[C@@H](N)C(C)C)[C@@H](C)O)C(=O)O [Val-Thr-Leu, H-Val-Thr-Leu-OH] (H-Val-Thr-Leu-OH)
Ratio of Increase in Blood TG Levels (%) (dose 0.1 mg/mouse oral with 250 mg olive oil): 30% | Ratio of Increase in Blood TG Levels (%) (dose 0.2 mg/mouse oral with 250 mg olive oil): 33% | Ratio of Increase in Blood TG Levels (%) (dose 1.0 mg/mouse oral with 250 mg olive oil): 73% | Ratio of Increase in Blood TG Levels (%) (dose 2.5 mg/mouse oral with 250 mg olive oil): 76% | Ratio of Increase in Blood TG Levels (%) (dose 5.0 mg/mouse oral with 250 mg olive oil): 79% | ID^50: Dose (mg/mouse) exhibiting 50% inhibition: 0.43 mg/mouse | Specific Activity: 65

LVVYPWT [SEQ ID NO: 1, Leu-Val-Val-Tyr-Pro-Trp-Thr]
Ratio of Increase in Blood TG Levels (%) (dose 1x10^-3 mg/mouse oral with 250 mg olive oil): 65% | Ratio of Increase in Blood TG Levels (%) (dose 1x10^-4 mg/mouse oral with 250 mg olive oil): 33% | Ratio of Increase in Blood TG Levels (%) (dose 4x10^-4 mg/mouse oral with 250 mg olive oil): 33% | Ratio of Increase in Blood TG Levels (%) (dose 4x10^-5 mg/mouse oral with 250 mg olive oil): 14% | ID^50: Dose (mg/mouse) exhibiting 50% inhibition: 5.6x10^-4 mg/mouse | Specific Activity: 50000
